According to BindingDB's records for doi:10.1016/S0960-894X(01)80380-2 (1994):

assay: Inhibition of ADP-mediated platelet aggregation in human gel-filtered platelets

SMILES | IC50
O=C(O)CCNC(=O)c1ccnc(C(=O)NCCC2CCNCC2)c1 [3-{[2-(2-Piperidin-4-yl-ethylcarbamoyl)-pyridine-4-carbonyl]-amino}-propionic acid] | 1.6 µM
O=C(O)CCNC(=O)c1cccc(C(=O)NCCC2CCNCC2)c1 [3-[3-(2-Piperidin-4-yl-ethylcarbamoyl)-benzoylamino]-propionic acid] | 0.53 µM
O=C(O)CCNC(=O)c1cc(C(=O)NCCC2CCNCC2)ccn1 [3-{[4-(2-Piperidin-4-yl-ethylcarbamoyl)-pyridine-2-carbonyl]-amino}-propionic acid] | 1.1 µM
O=C(O)CCNC(=O)c1cccc(C(=O)NCCC2CCNCC2)n1 [3-{[6-(2-Piperidin-4-yl-ethylcarbamoyl)-pyridine-2-carbonyl]-amino}-propionic acid] | 300 µM
O=C(O)CCN1Cc2ccc(C(=O)NCCC3CCNCC3)cc2C1=O [3-[1-Oxo-6-(2-piperidin-4-yl-ethylcarbamoyl)-1,3-dihydro-isoindol-2-yl]-propionic acid] | 10 µM
O=C(O)CCNC(=O)c1cncc(C(=O)NCCC2CCNCC2)c1 [3-{[5-(2-Piperidin-4-yl-ethylcarbamoyl)-pyridine-3-carbonyl]-amino}-propionic acid] | 2 µM
